Measured values: patent US8334287B2 (Hoffmann-La Roche Inc., priority 2009, dated 2012)

molecular target: T1, human mGlu5a receptor (Homo sapiens, UniProt P41594); assay: mGlu5a receptor binding, displacement of [3H]MPEP; conditions: competing radioligand [3H]MPEP; human mGlu5a receptor transiently transfected into EBNA cells; Ki=IC50/1+L/Kd
T1 construct: expressed in transfected cells; host or cells: EBNA cells (transient transfection); membranes prepared from them
Method: For binding experiments, cDNA encoding human mGlu5a receptor was transiently transfected into EBNA cells using a procedure described by E.-J. Schlaeger and K. Christensen (Cytotechnology 1998, 15, 1-13). For functional assays, [Ca^2+]i measurements were performed largely as described previously (Porter et al., Br J. Pharmacol 1999, 128, 13-20) on stably expressed recombinant human mGlu 5a receptors in HEK-293 cells. The cells were dye loaded using Fluo 4-AM (purchased from Molecular Probes, 2 μM final concentration) [Ca^2+]i measurements were performed using a fluorometric imaging plate reader (FLIPR, Molecular Devices Corporation, La Jolla, Calif., USA). Antagonist evaluation was performed following a 5 minute preincubation with the test compounds followed by the addition of a submaximal addition of agonist.
The inhibition (antagonists) curves were fitted with a four parameter logistic equation giving IC50, and Hill coefficient using the iterative non linear curve fitting software Xcel fit.
The Ki values of the compounds tested are given. The Ki value is defined by the following formula: Ki=IC50/1+L/Kd in which the IC50 values are those concentrations of the compounds tested in which causes 50% inhibition of the competing radioligand ([^3H]MPEP). [L] is the concentration of radioligand used in the binding experiment and the Kd value of the radioligand is empiracally determined for each batch of membranes prepared.

T1 sequence (P41594 21-1180 isoform P41594-2 limits assumed): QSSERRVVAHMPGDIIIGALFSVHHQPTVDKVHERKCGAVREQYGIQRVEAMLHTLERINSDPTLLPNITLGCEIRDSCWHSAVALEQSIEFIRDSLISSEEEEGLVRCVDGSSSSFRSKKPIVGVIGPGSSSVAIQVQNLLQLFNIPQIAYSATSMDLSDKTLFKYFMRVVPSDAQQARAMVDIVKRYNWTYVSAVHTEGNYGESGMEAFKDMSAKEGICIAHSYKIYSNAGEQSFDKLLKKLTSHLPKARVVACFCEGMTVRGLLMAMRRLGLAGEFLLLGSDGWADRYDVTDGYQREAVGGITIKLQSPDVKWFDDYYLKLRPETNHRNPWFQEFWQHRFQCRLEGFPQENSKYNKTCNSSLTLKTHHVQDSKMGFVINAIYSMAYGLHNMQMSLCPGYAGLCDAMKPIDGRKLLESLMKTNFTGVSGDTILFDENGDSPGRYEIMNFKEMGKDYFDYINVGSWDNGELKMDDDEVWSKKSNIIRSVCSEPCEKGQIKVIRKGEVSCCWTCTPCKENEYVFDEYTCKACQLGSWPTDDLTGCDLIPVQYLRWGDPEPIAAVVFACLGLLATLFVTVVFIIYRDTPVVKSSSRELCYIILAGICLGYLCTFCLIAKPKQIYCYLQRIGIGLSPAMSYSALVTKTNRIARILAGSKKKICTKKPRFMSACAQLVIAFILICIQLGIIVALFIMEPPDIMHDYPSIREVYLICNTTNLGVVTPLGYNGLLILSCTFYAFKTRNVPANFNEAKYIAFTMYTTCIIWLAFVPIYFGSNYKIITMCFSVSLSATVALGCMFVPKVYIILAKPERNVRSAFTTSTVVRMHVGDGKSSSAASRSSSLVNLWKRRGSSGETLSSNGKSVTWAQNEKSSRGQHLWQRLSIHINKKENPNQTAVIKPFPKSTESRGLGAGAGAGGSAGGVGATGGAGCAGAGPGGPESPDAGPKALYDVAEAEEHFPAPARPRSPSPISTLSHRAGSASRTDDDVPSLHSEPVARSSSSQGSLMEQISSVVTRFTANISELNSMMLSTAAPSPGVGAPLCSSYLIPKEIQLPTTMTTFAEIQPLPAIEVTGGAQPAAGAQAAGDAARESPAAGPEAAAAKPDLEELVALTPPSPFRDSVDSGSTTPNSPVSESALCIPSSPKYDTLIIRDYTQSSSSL

SMILES | Ki [nM]
Cc1nc(C#Cc2ccnc(Cl)c2)cn1-c1cncc(=O)[nH]1 [Example 19, 6-[4-(2-chloro-pyridin-4-ylethynyl)-2-methyl-imidazol-1-yl]-1H-pyrazin-2-one] | 504
COCCn1ccc(-n2cc(C#Cc3cccc(C)c3)nc2C)cc1=O [Example 12, 1-(2-Methoxy-ethyl)-4-(2-methyl-4-m-tolylethynyl-imidazol-1-yl)-1H-pyridin-2-one] | 40
Cc1nc(C#Cc2cccc(Cl)c2)cn1-c1cncc(=O)[nH]1 [Example 16, 6-[4-(3-chloro-phenylethynyl)-2-methyl-imidazol-1-yl]-1H-pyrazin-2-one] | 659
Cc1nc(C#Cc2ccnc(Cl)c2)cn1-c1cccc(O)n1 [Example 17, 6-[4-(2-chloro-pyridin-4-ylethynyl)-2-methyl-imidazol-1-yl]-pyridin-2-ol] | 144
CCn1ccc(-n2cc(C#Cc3cccc(Cl)c3)nc2C)cc1=O [Example 3, 4-[4-(3-chloro-phenylethynyl)-2-methyl-imidazol-1-yl]-1-ethyl-1H-pyridin-2-one] | 39

Now from value to compound:

Ki [nM] | SMILES
446 | Cc1cccc(C#Cc2nc(C)n(-c3ccn(CCO)c(=O)c3)c2C)c1 [Example 33, 4-[2,5-dimethyl-4-m-tolylethynyl-imidazol-1-yl]-1-(2-hydroxy-ethyl)-1H-pyridin-2-one]
808 | COCCn1ncc(-n2c(C)nc(C#Cc3ccnc(Cl)c3)c2C)cc1=O [Example 57, 5-[4-(2-Chloro-pyridin-4-ylethynyl)-2,5-dimethyl-imidazol-1-yl]-2-(2-methoxy-ethyl)-2H-pyridazin-3-one]
33 | Cc1nc(C#Cc2cccc(Cl)c2)c(C)n1-c1ccn(C)c(=O)c1 [Example 26, 4-[4-(3-chloro-phenylethynyl)-2,5-dimethyl-imidazol-1-yl]-1-methyl-1H-pyridin-2-one]
817 | Cc1nc(C#Cc2ccnc(Cl)c2)cn1-c1cncc(=O)n1C [Example 20, 6-[4-(2-chloro-pyridin-4-ylethynyl)-2-methyl-imidazol-1-yl]-1-methyl-1H-pyrazin-2-one]
74 | Cc1cccc(C#Cc2nc(C)n(-c3cc(=O)n(C)cn3)c2C)c1 [Example 45, 6-(2,5-dimethyl-4-m-tolylethynyl-imidazol-1-yl)-3-methyl-3H-pyrimidin-4-one]
131 | COCCn1ncc(-n2cc(C#Cc3cccc(C)c3)nc2C)cc1=O [Example 54, 2-(2-methoxy-ethyl)-5-(2-methyl-4-m-tolylethynyl-imidazol-1-yl)-2H-pyridazin-3-one]
788 | CNC(=O)Cn1ccc(-n2cc(C#Cc3cccc(C)c3)nc2C)cc1=O [Example 48, N-methyl-2-[4-(2-methyl-4-m-tolylethynyl-imidazol-1-yl)-2-oxo-2H-pyridin-1-yl]-acetamide]
